Test results as given in ChEMBL document CHEMBL1123664, “Preparation and antitumor activity of new mitomycin A analogues” (J Med Chem, 1987).
Where “and” joins values, the source holds several entries; their conditions need not be identical. Equal entries are not always repeated.

Assays:
[1] = test system: B16; assay: Antitumor activity against subcutaneously B16 melanoma cells in mice at an optimal dose of 1.6 mg/kg expressed as […] effective dose; type: functional; settings: Mus musculus, B16, sc, route subcutaneous, read-out: MED
[2] = test system: B16; assay: Antitumor activity against subcutaneously B16 melanoma cells in mice expressed as ratio of median survival time for treated group to that of control group at an optimal dose of 1.6 mg/kg; type: functional, Mus musculus; settings: route subcutaneous
[3] = test system: P388; assay: Antitumor activity against intraperitoneally implanted P388 leukemia cells in mice at an optimal dose of 1.6 mg/kg expressed as […] effective dose; type: functional; settings: Mus musculus, P388, ip, route intraperitoneal, read-out: MED
[4] = test system: P388; assay: Antitumor activity against intraperitoneally implanted P388 leukemia cells in mice expressed as ratio of median survival time for treated group to that of control group at an optimal dose of 1.6 mg/kg; type: functional, Mus musculus; settings: route intraperitoneal
[5] = test system: B16; assay: (§1) Antitumor activity against subcutaneously B16 melanoma cells in mice expressed as ratio of median survival time for treated group to that of control group at an optimal dose of 1-3 mg/kg; type: functional, Mus musculus
[6] = test system: P388; assay: Antitumor activity against intraperitoneally implanted P388 leukemia cells in mice at an optimal dose of 3.2 mg/kg expressed as […] effective dose; type: functional; settings: Mus musculus, P388, ip, route intraperitoneal, read-out: MED
[7] = test system: P388; assay: Antitumor activity against intraperitoneally implanted P388 leukemia cells in mice expressed as ratio of median survival time for treated group to that of control group at an optimal dose of 3.2 mg/kg; type: functional, Mus musculus; settings: route intraperitoneal
[8] = Partition coefficient (logP); type: physicochemical; settings: octanol/water
[9] = test system: B16; assay: Antitumor activity against subcutaneously B16 melanoma cells in mice expressed as ratio of median survival time for treated group to that of control group at an optimal dose of 0.8 mg/kg; type: functional, Mus musculus; settings: route subcutaneous
[10] = test system: B16; assay: as §1; type: functional, Mus musculus; remark: listed apart in the source
[11] = test system: B16; assay: Antitumor activity against subcutaneously B16 melanoma cells in mice at an optimal dose of 0.8 mg/kg expressed as […] effective dose; type: functional, Mus musculus; settings: route subcutaneous; for minimal effective dose at 0.8 mg/kg: Mus musculus, B16, sc, read-out: MED
[12] = test system: P388; assay: Antitumor activity against intraperitoneally implanted P388 leukemia cells in mice at an optimal dose of 0.8 mg/kg expressed as […] effective dose; type: functional; settings: Mus musculus, P388, ip, route intraperitoneal, read-out: MED
[13] = test system: P388; assay: Antitumor activity against intraperitoneally implanted P388 leukemia cells in mice expressed as ratio of median survival time for treated group to that of control group at an optimal dose of 0.8 mg/kg; type: functional, Mus musculus; settings: route intraperitoneal
[14] = test system: B16; assay: Antitumor activity against subcutaneously B16 melanoma cells in mice expressed as ratio of median survival time for treated group to that of control group at an optimal dose of 0.4 mg/kg; type: functional, Mus musculus; settings: route subcutaneous
[15] = test system: B16; assay: Antitumor activity against subcutaneously B16 melanoma cells in mice at an optimal dose of 0.2 mg/kg expressed as […] effective dose; type: functional; settings: Mus musculus, B16, sc, route subcutaneous, read-out: MED
[16] = test system: B16; assay: Antitumor activity against subcutaneously B16 melanoma cells in mice at an optimal dose of 0.4 mg/kg expressed as […] effective dose; type: functional; settings: Mus musculus, B16, sc, route subcutaneous, read-out: MED
[17] = test system: B16; assay: Antitumor activity against subcutaneously B16 melanoma cells in mice expressed as ratio of median survival time for treated group to that of control group at an optimal dose of 0.2 mg/kg; type: functional, Mus musculus; settings: route subcutaneous
[18] = test system: P388; assay: Antitumor activity against intraperitoneally implanted P388 leukemia cells in mice at an optimal dose of 12.8 mg/kg expressed as […] effective dose; type: functional; settings: Mus musculus, P388, ip, route intraperitoneal, read-out: MED
[19] = test system: P388; assay: Antitumor activity against intraperitoneally implanted P388 leukemia cells in mice expressed as ratio of median survival time for treated group to that of control group at an optimal dose of 12.8 mg/kg; type: functional, Mus musculus; settings: route intraperitoneal
[20] = test system: P388; assay: Antitumor activity against intraperitoneally implanted P388 leukemia cells in mice at an optimal dose of 6.4 mg/kg expressed as […] effective dose; type: functional; settings: Mus musculus, P388, ip, route intraperitoneal, read-out: MED
[21] = test system: P388; assay: Antitumor activity against intraperitoneally implanted P388 leukemia cells in mice expressed as ratio of median survival time for treated group to that of control group at an optimal dose of 6.4 mg/kg; type: functional, Mus musculus; settings: route intraperitoneal
[22] = test system: P388; assay: Antitumor activity against intraperitoneally implanted P388 leukemia cells in mice expressed as […] effective dose at an optimal dose of 3.2 mg/kg; type: functional; settings: Mus musculus, P388, ip, route intraperitoneal, read-out: MED
[23] = test system: P388; assay: Antitumor activity against intraperitoneally implanted P388 leukemia cells in mice expressed as ratio of median survival time for treated group to that of control group at an optimal dose of 0.4 mg/kg; type: functional, Mus musculus; settings: route intraperitoneal, 0.4 mg/kg
[24] = test system: P388; assay: Antitumor activity against intraperitoneally implanted P388 leukemia cells in mice expressed as ratio of median survival time for treated group to that of control group at an optimal dose of 0.2 mg/kg; type: functional, Mus musculus; settings: route intraperitoneal
[25] = test system: P388; assay: Antitumor activity against intraperitoneally implanted P388 leukemia cells in mice at an optimal dose of 0.4 mg/kg expressed as […] effective dose; type: functional, Mus musculus; settings: route intraperitoneal
[26] = test system: P388; assay: Antitumor activity against intraperitoneally implanted P388 leukemia cells in mice at an optimal dose of 0.2 mg/kg expressed as […] effective dose; type: functional; settings: Mus musculus, P388, ip, route intraperitoneal, read-out: MED
[27] = test system: P388; assay: Antitumor activity against intraperitoneally implanted P388 leukemia cells in mice expressed as ratio of median survival time for treated group to that of control group given in equally divided doses on days 1,4 and 7; type: functional, Mus musculus
[28] = test system: P388; assay: Antitumor activity against intraperitoneally implanted P388 leukemia cells in mice expressed as ratio of median survival time for treated group to that of control group at an optimal dose 0.8 mg/kg; type: functional, Mus musculus; settings: route intraperitoneal
[29] = test system: P388; assay: Antitumor activity against intraperitoneally implanted P388 leukemia cells in mice at an optimal dose 0.8 mg/kg expressed as […] effective dose; type: functional; settings: Mus musculus, P388, ip, route intraperitoneal, read-out: MED

Compound: COC(COC1=C(C)C(=O)C2=C(C1=O)C(COC(N)=O)[C@@]1(OC)C3NC3CN21)OC (some centres not stated)
- minimal effective dose at 1.6 mg/kg [1]: 0.4 mg/kg
- T/C [2]: 216%
- minimal effective dose at 1.6 mg/kg [3]: < 0.025 mg/kg
- T/C [4]: 269%

Compound: CO[C@@]12C(COC(N)=O)C3=C(C(=O)C(C)=C(OC4CCOC4)C3=O)N1CC1NC12 (some centres not stated)
- T/C [5]: 135%
- minimal effective dose at 3.2 mg/kg [6]: < 0.05 mg/kg
- minimal effective dose at 1.6 mg/kg [1]: 1.6 mg/kg
- T/C [2]: 198%
- T/C [7]: 178%
- logP [8]: 0.79

Compound: CO[C@@]12C(COC(N)=O)C3=C(C(=O)C(C)=C(OCCSSCCO)C3=O)N1CC1NC12 (some centres not stated)
- T/C [9]: 243%
- T/C [10]: 136%
- logP [8]: 1.35
- minimal effective dose at 0.8 mg/kg [11]: 0.2 mg/kg
- T/C [4]: 259%

Compound: COCCOCCOC1=C(C)C(=O)C2=C(C1=O)C(COC(N)=O)[C@@]1(OC)C3NC3CN21 (some centres not stated)
- minimal effective dose at 0.8 mg/kg [12]: < 0.1 mg/kg
- T/C ([9]; 0.8 mg/kg): >191% and >265%
- logP [8]: 0.32
- minimal effective dose at 0.8 mg/kg [11]: 0.4 mg/kg
- MED [11]: 0.4 mg/kg
- T/C [13]: 225%

Compound: CCOC1=C(C)C(=O)C2=C(C1=O)C(COC(N)=O)[C@@]1(OC)C3NC3CN21 (some centres not stated)
- T/C [14]: 212%
- minimal effective dose at 0.2 mg/kg [15]: 0.1 mg/kg
- minimal effective dose at 0.4 mg/kg [16]: < 0.4 mg/kg
- minimal effective dose at 1.6 mg/kg [3]: < 0.05 mg/kg
- logP [8]: 0.76
- T/C [4]: 188%
- T/C [17]: 215%

Compound: C=CCOC1=C(C)C(=O)C2=C(C1=O)C(COC(N)=O)[C@@]1(OC)C3NC3CN21 (some centres not stated)
- minimal effective dose at 1.6 mg/kg [3]: 0.1 mg/kg
- logP [8]: 0.87
- T/C [4]: 156%

Compound: CO[C@@]12C(COC(N)=O)C3=C(C(=O)C(C)=C(OCC(O)CO)C3=O)N1CC1NC12 (some centres not stated)
- minimal effective dose at 12.8 mg/kg [18]: 0.2 mg/kg
- T/C [19]: 225% and 205%

Compound: CO[C@@]12C(COC(N)=O)C3=C(C(=O)C(C)=C(OCc4ccco4)C3=O)N1CC1NC12 (some centres not stated)
- minimal effective dose at 6.4 mg/kg [20]: 6.4 mg/kg
- T/C [21]: 139%
- logP [8]: 1.6

Compound: CO[C@@]12C(COC(N)=O)C3=C(C(=O)C(C)=C(OCc4ccccc4)C3=O)N1CC1NC12 (some centres not stated)
- T/C [7]: 167%
- minimal effective dose at 3.2 mg/kg [22]: < 0.2 mg/kg
- logP [8]: 2.22

Compound: C#CCOC1=C(C)C(=O)C2=C(C1=O)C(COC(N)=O)[C@@]1(OC)C3NC3CN21 (some centres not stated)
- minimal effective dose at 0.8 mg/kg [12]: < 0.05 mg/kg
- T/C [9]: 204%
- logP [8]: 0.74
- T/C [13]: 150%

Compound: CO[C@@]12C(COC(N)=O)C3=C(C(=O)C(C)=C(OCCO)C3=O)N1CC1NC12 (some centres not stated)
- T/C [14]: 178%
- T/C [23]: 178% and >328%
- T/C [24]: 217%
- minimal effective dose at 0.4 mg/kg [16]: 0.2 mg/kg
- minimal effective dose at 0.4 mg/kg ([25]; Mus musculus, P388, ip, read-out: MED): 0.0063 mg/kg
- MED [25]: 0.0063 mg/kg
- minimal effective dose at 0.2 mg/kg [26]: < 0.1 mg/kg
- T/C [27]: 194%

Compound: CO[C@@]12C(COC(N)=O)C3=C(C(=O)C(C)=C(OCC4CCCCO4)C3=O)N1CC1NC12 (some centres not stated)
- T/C [28]: 161%
- minimal effective dose at 0.8 mg/kg [29]: 0.1 mg/kg
- logP [8]: 1.79

Compound: CO[C@@]12C(COC(N)=O)C3=C(C(=O)C(C)=C(OCCCO)C3=O)N1CC1NC12 (some centres not stated)
- minimal effective dose at 1.6 mg/kg [3]: 0.05 mg/kg
- logP [8]: 0.14
- T/C [4]: 175%
